Tests used:
thrombin generation = experiment: Thrombin generation (calibrated automated thrombogram) in roller pump ECMO circuit (Trial 1); set-up: species or system human; conditions: for time to thrombin generation: at the 3-hour time point, p<0.04; for time to thrombin generation / peak thrombin generation: heparin with or without roflumilast; for peak thrombin generation: p<0.02
Source text: (§1) Whole blood was collected from healthy adults under an U.S. Army Institute of Surgical Research approved standard operating procedure. A simulated neonatal roller pump with a KIDS D100 oxygenator circulated human whole blood at a low or nominal flow rate ([…] and 0.5 L/min) for six hours or until clot formation caused device failure. Samples were collected hourly from the ECMO model that received heparin alone or heparin plus roflumilast (a PDE4 inhibitor). Expression of pro-thrombotic proteins on leukocytes and extracellular vesicles (EV) were measured with high-resolution flow cytometry. Coagulation factor activity, platelet counts, time to thrombin generation, peak thrombin, and endogenous thrombin potential were quantified.
(§2) Whole blood was collected from healthy adult humans into a blood transfer bag containing 0.5 U/mL of heparin with or without roflumilast at 0.01 microgram per mL, under an approved protocol by the U.S. Army Institute of Surgical Research. The blood was then circulated through a roller pump circuit for six hours or until clot formation occurred that prevented forward flow through the circuit. As a control, an aliquot of static blood was removed after priming the circuit and maintained in a similar test environment without circuitry.
(§3) Samples were collected hourly from the roller pump circuit, which circulated blood treated with either heparin only or heparin plus roflumilast, at nominal flow rates (0.5 L/min). The expression of pro-thrombotic phospholipids and proteins on platelets, leukocytes, and extracellular vesicles (EV) was measured using high-resolution flow cytometry. Additionally, thromboelastography (TEG) and coagulation indices were used to assess coagulopathy, and a calibrated automated thrombogram was employed to measure differences in whole blood TEG between the roflumilast-treated and heparin-only samples.

human whole blood [1] = experiment: Circuit patency / clot formation in simulated neonatal roller pump ECMO circuit (Trial 1); conditions: for circuits with sustained patency after six hours: heparin 0.5 U/mL with or without roflumilast, 3/4 vs 2/7 circuits
Source text: as §1, §2, §3

human whole blood [2] = experiment: Clot formation (d-dimer) and plasminogen activating inhibitor in simulated Cardiohelp HTS in vitro ECMO system (Trial 2); conditions: after five hours of circulation, low flow rate (1 L/min); for clot formation as measured by d-dimer: heparin with or without roflumilast, p<0.04
Source text: (§4) Whole blood was collected from healthy adults under an US Army Institution of Surgeryal Review Board approved protocol. A simulated Cardiohelp HTS in vitro ECMO system with a double-lumen veno-venous catheter circulated human whole blood at a low flow rate (1 L/min) for six hours or until clot formation caused device failure. Samples were collected hourly from the ECMO model that received heparin alone or heparin plus roflumilast (a PDE4 inhibitor). Expression of pro-thrombotic proteins on leukocytes and extracellular vesicles (EV) were measured with high-resolution flow cytometry. Coagulation factor activity, platelet counts, time to thrombin generation, peak thrombin, and endogenous thrombin potential were quantified.

[3] = system: neutrophils and monocytes; conditions: Totani et al (J. Thromb Haemost. 2016); cited from earlier work
leukocytes = experiment: Leukocyte activation measured by TNF-alpha in roller pump ECMO circuit (Trial 1); type: cell-based, human; conditions: nominal flow rate (0.5 L/min), six hours; heparin with Roflumilast
Source text: as §1, with “quantified. Whole blood was collected from healthy adult humans into a blood transfer bag containing 0.5 U/mL of heparin with or without roflumilast at 0.01 microgram per mL, under an approved protocol by the U.S. Army Institute of Surgical Research. The blood was then circulated through a roller pump circuit for six hours or until clot formation occurred that prevented forward flow through the circuit. As a control, an aliquot of static blood was removed after priming the circuit and maintained in a similar test environment without circuitry.” for “quantified.”

monocyte = conditions: cell culture experiments; cited from earlier work
human whole blood [4] = experiment: Thromboinflammation markers in simulated Cardiohelp HTS in vitro ECMO system (Trial 2); type: cell-based; conditions: roflumilast added to heparin vs heparin alone; preliminary results
Source text: as §4

[5] = system: platelets, leukocytes, and extracellular vesicles (EV); experiment: High-resolution flow cytometry of pro-thrombotic proteins in roller pump ECMO circuit (Trial 1); type: cell-based, human
Source text: Whole blood was collected from healthy adults under an U.S. Army Institute of Surgical Research approved standard operating procedure. A simulated neonatal roller pump with a KIDS D100 oxygenator circulated human whole blood at a low or nominal flow rate ([…] and 0.5 L/min) for six hours or until clot formation caused device failure. Samples were collected hourly from the ECMO model that received heparin alone or heparin plus roflumilast (a PDE4 inhibitor). Expression of pro-thrombotic proteins on leukocytes and extracellular vesicles (EV) were measured with high-resolution flow cytometry. Coagulation factor activity, platelet counts, time to thrombin generation, peak thrombin, and endogenous thrombin potential were quantified. Whole blood was collected from healthy adult humans into a blood transfer bag containing 0.5 U/mL of heparin with or without roflumilast at 0.01 microgram per mL, under an approved protocol by the U.S. Army Institute of Surgical Research. The blood was then circulated through a roller pump circuit for six hours or until clot formation occurred that prevented forward flow through the circuit. As a control, an aliquot of static blood was removed after priming the circuit and maintained in a similar test environment without circuitry. Samples were collected hourly from the roller pump circuit, which circulated blood treated with either heparin only or heparin plus roflumilast, at nominal flow rates (0.5 L/min). The expression of pro-thrombotic phospholipids and proteins on platelets, leukocytes, and extracellular vesicles (EV) was measured using high-resolution flow cytometry. Additionally, thromboelastography (TEG) and coagulation indices were used to assess coagulopathy, and a calibrated automated thrombogram was employed to measure differences in whole blood TEG between the roflumilast-treated and heparin-only samples.

[6] = in vitro ECMO experiments with roflumilast

Compound | time to thrombin generation (thrombin generation) [min] | peak thrombin generation (thrombin generation) [nm] | circuits with sustained patency after six hours (human whole blood [1]) [%] | clot formation as measured by d-dimer (human whole blood [2]) [µg/mL] | pro-thrombotic functions of neutrophils and monocytes [3] | thrombin generation (in vitro ECMO experiments, summary) (thrombin generation; [6]) | Peak thrombin (comparison in words) (thrombin generation; nominal flow rate (0.5 L/min), six hours, heparin only vs leukodepleted or roflumilast and heparin, p<0.05) | lag time (thrombin generation) (thrombin generation; over six hours of circulation, heparin vs heparin with Roflumilast) | leukocyte activation as measured by TNF-alpha (leukocytes) | clot formation (in vitro ECMO experiments, summary) (human whole blood [1]; [6]) | monocyte activation of tissue factor (monocyte) | monocyte activation (thromboinflammation) (human whole blood [4]) | myeloperoxidase (thromboinflammation) (human whole blood [4]) | p-selectin (thromboinflammation) (human whole blood [4]) | Monocytes expression of tissue factor ([5]; low flow (0.3 L/min) vs low flow with Roflumilast, p<0.05) | P-selection expression ([5]; low flow (0.3 L/min) with Roflumilast vs nominal and low flow, over six hours, p<0.05) | extracellular leukocytes expressing tissue factor ([5]; roller pump circuit, heparin plus roflumilast) | increase in plasminogen activating inhibitor levels, more than heparin alone (human whole blood [2]; roflumilast added to heparin, p<0.03) [fold]
heparin | 6.8 | 207 | 28 | 0.49 ± 0.08 | – | – | – | – | – | – | – | – | – | – | – | – | – | –
O=C(Nc1c(Cl)cncc1Cl)c1ccc(OC(F)F)c(OCC2CC2)c1 [roflumilast] | 13.9 | 69 | 75 | 0.30 ± 0.06 | prevents | decreased | increased significantly more in heparin only | decreased lag time over six hours of circulation less than roflumilast treated circuits | inhibited leukocyte activation | decreased | decreases | less | less | less | increased more at low flow than circuits treated with | significantly inhibited | decreased | 1.6
